These results are taken from PMC2424174, “Suppression of Tumor Growth and Angiogenesis by a Specific Antagonist of the Cell-Surface Expressed Nucleolin” (PLoS ONE, 2008).

Marks after values point to notes of the source that are not given here.

Data set [1] relates to surface nucleolin. In words: Complex of HB-19/Btn with surface nucleolin, MDA-MB-231 cells, avidin-agarose and immunoblot. The class given is binding, human. The following applies: 45 min, 20°C, 0-12 µM HB-19/Btn. Here is the method: Figure 2 HB-19 binds nucleolin expressed on the surface of tumor cells and causes reduction of cytoplasmic/surface but not nuclear nucleolin. (A) HB-19/Btn forms a stable complex with nucleolin expressed on the surface of cells. MDA-MB-231 cells were incubated (45 min, 20°C) with 0, 1, 2, 4, 8 and 12 µM of HB-19/Btn before preparation of surface/cytoplasmic (i.e., nucleus-free) and nuclear extracts, [28]. Samples of surface nucleolin (purified using surface/cytoplasmic extracts from 2×10^7 cells) and crude surface/cytoplasmic and nuclear extracts (from 2×10^6 cells) were analyzed by immunoblotting for the detection of nucleolin using mAb D3. (B) Specific reduction of surface/cytoplasmic nucleolin in HB-19 treated cells. […] Material from 2×10^6 cells (Untreated or HB-19 treated cells as indicated − or + signs, respectively) was analyzed by immunoblotting for the detection of nucleolin. […] The intensity of nucleolin protein bands quantified by using the NIH image software indicated 75% and 93% reduction of surface/cytoplasmic nucleolin in HB-19 treated cells at 24 and 48 hours, respectively, compared to the corresponding untreated cells. […] MDA-MB-231 cells cultured in the absence (Control Cells) or presence of 10 µM of HB-19 for 48 hours (HB-19 Treated Cells) were fixed in PFA-Triton and processed for fluorescence microscopy. […]
A general note: In western blotting, separated proteins are transferred to a membrane and probed.

Data set [2] has as its system surface nucleolin. In words: Complex of HB-19/Btn with surface nucleolin, HUVECs, avidin-agarose and immunoblot. In kind it is binding, human. The note with it: 45 min, 20°C, 0-12 µM HB-19/Btn. Here is the method:
Figure 3 Specific binding and entry of HB-19 in endothelial cells. (A) HB-19/Btn forms a stable complex with nucleolin expressed on the surface of HUVECs. Cells were incubated (45 min, 20°C) with 0, 1, 2, 4, 8 and 12 µM of HB-19/Btn before preparation of surface/cytoplasmic and nuclear extracts and recovery of surface nucleolin from the surface/cytoplasmic extracts as in Figure 2A. Material extracted from 2×10^7 and 2×10^6 cells was analyzed in panels Surface and Surface/Cytoplasm or Nucleus, respectively. Immunoblotting was with the anti-nucleolin mAb D3. (B) The specific binding of HB-19/Btn to HUVECs. The binding of 1 µM HB-19/Btn was studied at 4 °C by FACScan analysis. To show the specificity of binding, the reaction was carried out in the absence or presence of 50 µM HB-19, F3, or 9Arg peptides. The ordinate gives the relative cell number, whereas the abscissa gives the relative fluorescence intensity. (C) HB-19 entry in HUVECs. Cells were incubated with 5 µM of HB-19/Btn (1 hour, 37°C) before fixation in PFA (for surface binding) or PFA-Triton (for entry), respectively. […]
Cells were passaged in DMEM culture medium containing 10% FCS in 75 cm^2 flasks. […] The purified surface nucleolin was eluted in the electrophoresis sample buffer containing SDS and analyzed by SDS–polyacrylamide gel electrophoresis (PAGE).

For data set [3], the system named is MDA-MB-435 tumor-cell xenografts. In words: MDA-MB-435 xenograft in nude mice. The following applies: 5-FU 40 mg/kg, intraperitoneal, 3 times/week, 8 weeks, n = 10. The class given is in vivo, human. The method, then:
Figure 8 HB-19 inhibits tumor growth in the nude mice. (A) HB-19 inhibits the growth of MDA-MB-231 tumor-cell xenografts. Cells (2×10^6) were injected subcutaneously into the right flank of female nude mice. Two weeks later, mice with a palpable tumor of approximately 40 mm^3 in volume were randomly separated into three groups (n = 5) and were given peritumoral injections 3 times/week of 0.1 ml PBS alone (Control), HB-19 (5 mg/kg), or Tamoxifen (Tmx) 10 mg/kg) for 6 weeks. (B) HB-19 inhibits the growth of MDA-MB-435 tumor-cell xenografts. Cells (1×10^6) were injected in the mammary fat pad of female nude mice. Two weeks later, mice with a palpable tumor were randomly separated into three groups (n = 10) and were given intraperitoneal injections 3 times/week of 0.1 ml PBS alone (Control), HB-19 (5 mg/kg), or 5-fluouracil (5-FU, 40 mg/kg) for 8 weeks. At the end of each experiment (in A and B), mice were sacrificed and the tumors were excised and weighed. The results are presented as the mean weight ±standard deviation (±S.D.) obtained from the number of mice in each group. (C, D) Inhibition of tumor development in mice treated by intraperitoneal (i.p.) and subcutaneous (s.c.) administration of HB-19. MDA-MB-231 tumor bearing mice in three groups (n = 10) were treated with HB-19 (10 mg/kg) by i.p. or s.c. injections, 3 times/week for 28 days. […]
A general note: In xenograft studies the graft and the host belong to different species.

Data set [4] relates to CD31 endothelial marker in tumors. In words: Tumor vascularization, CD31 immunohistochemistry. In kind it is in vivo, mouse. The note with it: CD31 staining; HB-19 5 mg/kg or 5-FU 40 mg/kg, intraperitoneal, 8 weeks; compared to untreated tumors. Here is the method:
Figure 9 Reduced density of blood vessels in HB-19 treated tumor-bearing mice. Sections of tumors recovered from mice, untreated control and treated with either HB-19 or 5-FU (experiment described in Figure 8B) were stained with antibodies against the CD31 endothelial marker and analyzed by fluorescence microscopy. […] Angiogenesis was quantified by image analysis of CD31-labeled endothelial cells.
Immediately after surgical resection, tumors, were frozen in liquid nitrogen and fixed for 20 min in acetone at 4°C or fixed with 4% PFA for paraffin inclusion. The sections of 8 µm were re-hydrated and saturated in PBS containing 1% BSA and 2% normal goat serum. To visualize tumor endothelial cells, sections were incubated with a Rat anti-mouse CD31 monoclonal antibody (1∶50) in saturation buffer 1 hour at room temperature. After two washes in PBS, sections were incubated for 1 hour at room temperature with biotinylated goat anti-Rat IgG (1∶1000 dilution; Chemicon International Inc., Temecula, CA) in saturation buffer, followed by three washes in PBS and incubation with the avidin-biotinylated-alkaline phosphatase complex (Vector Laboratories). […] Angiogenesis was quantified by Image analysis of CD31-labeled endothelial cells. The EC density in each field was expressed as the ratio of EC area/total area examined ×100 (%). […]

A short description of data set [5]: Blood cell count in tumor bearing mice. In kind it is in vivo, mouse. The note with it: 3 times/week, 8 weeks. The method, then:
(§1) Figure 8 HB-19 inhibits tumor growth in the nude mice. (A) HB-19 inhibits the growth of MDA-MB-231 tumor-cell xenografts. Cells (2×10^6) were injected subcutaneously into the right flank of female nude mice. Two weeks later, mice with a palpable tumor of approximately 40 mm^3 in volume were randomly separated into three groups (n = 5) and were given peritumoral injections 3 times/week of 0.1 ml PBS alone (Control), HB-19 (5 mg/kg), or Tamoxifen (Tmx) 10 mg/kg) for 6 weeks. (B) HB-19 inhibits the growth of MDA-MB-435 tumor-cell xenografts. Cells (1×10^6) were injected in the mammary fat pad of female nude mice. Two weeks later, mice with a palpable tumor were randomly separated into three groups (n = 10) and were given intraperitoneal injections 3 times/week of 0.1 ml PBS alone (Control), HB-19 (5 mg/kg), or 5-fluouracil (5-FU, 40 mg/kg) for 8 weeks. At the end of each experiment (in A and B), mice were sacrificed and the tumors were excised and weighed. The results are presented as the mean weight ±standard deviation (±S.D.) obtained from the number of mice in each group. (C, D) Inhibition of tumor development in mice treated by intraperitoneal (i.p.) and subcutaneous (s.c.) administration of HB-19. MDA-MB-231 tumor bearing mice in three groups (n = 10) were treated with HB-19 (10 mg/kg) by i.p. or s.c. injections, 3 times/week for 28 days. […] Statistical significance: *p<0.05, **p<0.01, ***p<0.001.
Blood samples were collected by cardiac puncture. Hematocrit level, white blood cells and platelets count were determined individually in whole blood anticoagulated with EDTA (1 mM) at room temperature. Blood cell count was analyzed with an automated flow cytometric blood cell counter (Cell-Dyn 3500, Abbott Laboratories, Rungis, France).

For the next data set, the system named is nucleolin. The note with it: cited from earlier work. From the text: HB-19 presents pentavalently the tripeptide Kψ(CH2N)PR in which the reduced peptide bond provides high stability against serum proteases (Figure 1). HB-19 forms a stable complex with the cell-surface expressed nucleolin and is internalized by an active process. This le ... || The interaction of HB-19 with surface nucleolin was investigated using human breast cancer MDA-MB-231 tumor cells and human umbilical vein endothelial cells (HUVECs). […] Similarly, HB-19/Btn binds and forms a stable complex with surface nucleolin in a dose-dependent manner in both types of cell ... || Previously, guanosine-rich phosphodiester oligonucleotides (referred to as GROs) and endostatin have been reported to exert antitumoral and antiangiogenic activity, respectively, through interaction with surface nucleolin [21], [41], [42]. […] At 20°C, GRO ... || (+ 1 further places)

Data set [6] has as its system cells (surface nucleolin). The following applies: cited from earlier work. The source says:
The importance of cell-surface nucleolin in cancer biology is highlighted by many studies showing that ligands of nucleolin play critical role in tumorigenesis and angiogenesis, [16]. For example, among surface nucleolin binding growth factors: midkine and PTN can transform cells, whereas on endothelial cells they exert both mitogenic and angiogenic effect. Laminin-1 that induces differentiation of cells binds surface nucleolin, while urokinase that is implicated in mechanisms regulating pericellular proteolysis, cell-surface adhesion, and mitogenesis binds and is co-internaliz ... || Previously, guanosine-rich phosphodiester oligonucleotides (referred to as GROs) and endostatin have been reported to exert antitumoral and antiangiogenic activity, respectively, through interaction with surface nucleolin [21], [41], [42]. […] At 20°C, GRO ...

For a further data set, the system named is nuclear nucleolin. The following applies: cited from earlier work. The method, then:
(§2) Previously, guanosine-rich phosphodiester oligonucleotides (referred to as GROs) and endostatin have been reported to exert antitumoral and antiangiogenic activity, respectively, through interaction with surface nucleolin [21], [41], [42]. […] At 20°C, GRO ...

Another data set has as its system tumor cells. The note with it: cited from earlier work. Here is the method:
as §2

Data set [7] relates to MDA-MB-231 tumor-cell xenografts. In words: MDA-MB-231 xenograft in nude mice. The class given is in vivo, human. The following applies: tamoxifen 10 mg/kg, peritumoral, 3 times/week, 6 weeks, n = 5. Here is the method:
as §1

As for “H2NLys-Lys-Lys-Gly-Pro-Lys-Glu-Lys-βAla-Lys(Btn)-βAlaCONH2 [HB-19/Btn, biotinylated HB-19 for recovery of surface nucleolin]”, the “concentration of maximum binding to surface nucleolin” value in the data set with surface nucleolin [1] and in the data set on surface nucleolin [2] was 8 to 12 µM throughout.
On to `O=c1[nH]cc(F)c(=O)[nH]1` [5-FU, 5-fluouracil], for which, in data set [3], the “inhibition of tumor growth” value came out at 66%. The “inhibition of tumor vascularization” value in data set [4] is “significantly inhibited tumor vascularization”. Moreover, in data set [5] (5-FU 40 mg/kg, intraperitoneal), the leucopenia entry is recorded as “toxic causing a significant degree of leucopenia” and the “reduction in the number of lymphocytes” value stood at 55%. For the same molecule, the Eosinophils in data set [5] (HB-19 5 mg/kg or 5-FU 40 mg/kg i.p., mean ± SD, n = 10, untreated 0.01±0.02) was 0.05±0.04 ×10^3/µl. For the same molecule, the Basophils in data set [5] (HB-19 5 mg/kg or 5-FU 40 mg/kg i.p., mean ± SD, n = 10, untreated 0.10±0.06) was 0.10±0.04 ×10^3/µl. The Monocytes in data set [5] (HB-19 5 mg/kg or 5-FU 40 mg/kg i.p., mean ± SD, n = 10, untreated 0.20±0.09) is given as 0.22±0.09 ×10^3/µl. Also, the Neutrophils in data set [5] (HB-19 5 mg/kg or 5-FU 40 mg/kg i.p., mean ± SD, n = 10, untreated 0.89±0.39, 5-FU p<0.05) is 0.53±0.15 * ×10^3/µl. Besides, the Lymphocytes in [5] (HB-19 5 mg/kg or 5-FU 40 mg/kg i.p., mean ± SD, n = 10, untreated 1.84±0.78, 5-FU p<0.01) was 0.83±0.22 ** ×10^3/µl. In addition, in data set [5] (HB-19 5 mg/kg or 5-FU 40 mg/kg i.p., mean ± SD, n = 10, untreated 3.05±1.29, 5-FU p<0.05), the Leukocytes is on record as 1.73±0.37 * ×10^3/µl. Further, the Erythrocytes in [5] (HB-19 5 mg/kg or 5-FU 40 mg/kg i.p., mean ± SD, n = 10, untreated 8.73±0.26, 5-FU p<0.0001) is reported as 7.60±0.30*** ×10^6/µl. The Platelets in data set [5] (HB-19 5 mg/kg or 5-FU 40 mg/kg i.p., mean ± SD, n = 10, untreated 1041±91) is recorded as 1042±59 ×10^3/µl.
Consider endostatin, for which, in the data set with nucleolin, the “heparan sulfate proteoglycan requirement of binding to surface nucleolin” value is recorded as “endostatin but not HB-19 binding to surface nucleolin requires heparan sulfate proteoglycans”. The internalization result in data set [6] is listed as “binds nucleolin on the surface of endothelial cells before translocation to the nucleus”. Besides, the “phosphorylation of nuclear nucleolin” value in the data set on nuclear nucleolin is “inhibits phosphorylation of nuclear nucleolin”. Further, in the data set on tumor cells, the “direct effect on tumor cell growth” value is “does not directly affect tumor cell growth”.
With `CC/C(=C(\c1ccccc1)c1ccc(OCCN(C)C)cc1)c1ccccc1` [tamoxifen, reference compound], the “reduction of tumor mass” value in data set [7] is listed as 80%.
